Experimental data published in paper PMC11923874, “Integration of Phytomelatonin Signaling With Jasmonic Acid in Wound‐induced Adventitious Root Regeneration” (Advanced Science, 2025).

How the values were obtained:
SlPMTR1 = target: T1, SlPMTR1; test: microscale thermophoresis (GFP fusion); type: binding, Solanum lycopersicum; conditions: 22 °C, 30 min incubation; His-MBP-GFP fusion protein at 1 mg/ml
T1 construct: 6xHis-MBP-SlPMTR1-GFP fusion, pMAL-c2, E. coli Rosetta (DE3), Ni-NTA purified; seven-transmembrane protein; native length 300 residues (fragments 1-134 and 135-300); tags kept

SlPMTR2 = target: T2, SlPMTR2 (Solanum lycopersicum, UniProt A0A3Q7GXJ6); test: microscale thermophoresis (GFP fusion); type: binding
T2 construct: gene LOC101260652; 6xHis-MBP-SlPMTR2-GFP fusion, pMAL-c2, E. coli Rosetta (DE3), Ni-NTA purified; seven-transmembrane protein; native length 309 residues (fragments 1-140 and 141-309); tags kept
T2 sequence (A0A3Q7GXJ6 1-309): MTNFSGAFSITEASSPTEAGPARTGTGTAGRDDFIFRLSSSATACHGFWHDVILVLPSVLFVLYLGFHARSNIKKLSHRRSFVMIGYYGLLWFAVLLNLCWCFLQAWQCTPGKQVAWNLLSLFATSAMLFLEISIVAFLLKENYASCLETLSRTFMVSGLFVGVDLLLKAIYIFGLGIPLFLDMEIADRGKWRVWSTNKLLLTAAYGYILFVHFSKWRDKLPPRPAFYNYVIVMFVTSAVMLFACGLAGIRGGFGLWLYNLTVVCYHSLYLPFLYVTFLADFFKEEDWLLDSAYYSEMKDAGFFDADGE

Which results are given for `COc1ccc2[nH]cc(CCNC(C)=O)c2c1` [melatonin]?
Kd (SlPMTR1): 50.7 nM; Kd (SlPMTR2): 419 nM
